Legend:
[1] = target: T1, unphosphorylated VEGF-R2Δ50 (Homo sapiens, UniProt P35968, DEL940-989/E990V); test: VEGF-R2 coupled spectrophotometric assay, unphosphorylated construct (FLVK); type: biochemical; conditions: % inhibition at 50 nM compound; read-out: FLVK Ki % inh @ 50 nM
T1 construct: VEGF-R2Δ50 contains residues 806–939 and 990–1171; made in house; host or cells: baculovirus/insect cell system
Description: This construct determines the ability of a test compound to inhibit tyrosine kinase activity. A construct (VEGF-R2Δ50) of the cytosolic domain of human vascular endothelial growth factor receptor 2 (VEGF-R2) lacking the 50 central residues of the 68 residues of the kinase insert domain was expressed in a baculovirus/insect cell system. Of the 1356 residues of full-length VEGF-R2, VEGF-R2Δ50 contains residues 806–939 and 990–1171, and also one point mutation (E99OV) within the kinase insert domain relative to wild-type VEGF-R2. Autophosphorylation of the purified construct was performed by incubation of the enzyme at a concentration of 4 μM in the presence of 3 mM ATP and 40 mM MgCl2 in 100 mM HEPES, pH 7.5, containing 5% glycerol and 5 mM DTT, at 4° C. for 2 h. […] See Parast et al., Biochemistry, 37,16788–16801 (1998).
(§1) The production of ADP from ATP that accompanies phosphoryl transfer was coupled to oxidation of NADH using phosphoenolpyruvate (PEP) and a system having pyruvate kinase (PK) and lactic dehydrogenase (LDH). The oxidation of NADH was monitored by following the decrease of absorbance at 340 nm (e340=6.22 cm^−1 mM^−1) using a Beckman DU 650 spectrophotometer. Assay conditions for phosphorylated VEGF-R2A50 (indicated as FLVK-P in the tables below) were the following: 1 mM PEP; 250 μM NADH; 50 units of LDH/mL; 20 units of PK/mL; 5 mM DTT; 5.1 mM poly(E4Y1); 1 mM ATP; and 25 mM MgCl2 in 200 mM HEPES, pH 7.5. Assay conditions for unphosphorylated VEGF-R2Δ50 (indicated as FLVK in the tables) were the following: 1 mM PEP; 250 μM NADH; 50 units of LDH/mL; 20 units of PK/mL; 5 mM DTT; […]; 3 mM ATP; and 60 mM MgCl2 and 2 mM MnCl2 in 200 mM HEPES, pH 7.5. Assays were initiated with 5 to 40 nM of enzyme. Ki values were determined by measuring enzyme activity in the presence of varying concentrations of test compounds. The data were analyzed using Enzyme Kinetic and Kaleidagraph software.

FGF-R1 = target: T2, FGF-R1 (Homo sapiens, UniProt P11362, C488A/C584S/L457V); test: Fibroblast Growth Factor (FGF-R) spectrophotometric assay; type: biochemical; conditions: 1 μM compound; read-out: FGF-P % inhibit @1 μM
T2 construct: starting from the endogenous methionine residue 456 to glutamate 766; made in house; host or cells: baculovirus vector expression system
T2 sequence (P11362 456-766 L457V/C488A/C584S): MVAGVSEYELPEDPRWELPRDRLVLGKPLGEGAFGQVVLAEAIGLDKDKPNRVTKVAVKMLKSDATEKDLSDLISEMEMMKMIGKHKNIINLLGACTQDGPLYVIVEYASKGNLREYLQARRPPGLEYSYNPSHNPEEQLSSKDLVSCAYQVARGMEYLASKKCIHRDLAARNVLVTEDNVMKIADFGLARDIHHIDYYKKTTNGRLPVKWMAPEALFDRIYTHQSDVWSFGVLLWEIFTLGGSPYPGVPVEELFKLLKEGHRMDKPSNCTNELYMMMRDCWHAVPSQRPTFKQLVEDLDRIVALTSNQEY
Description: The intracellular kinase domain of human FGF-R1 was expressed using the baculovirus vector expression system starting from the endogenous methionine residue 456 to glutamate 766, according to the residue numbering system of Mohammadi et al., Mol. Cell. Biol., 16, 977–989 (1996). In addition, the construct also has the following 3 amino acid substitutions: L457V, C488A, and C584S.
as §1
The spectrophotometric assay was carried out as described above for VEGF-R2, except for the following changes in concentration: FGF-R=50 nM, ATP=2 mM, and poly(E4Y1)=15 mM.

[2] = tested on: human umbilical vein endothelial cells (HUVEC); test: HUVEC Proliferation Assay (VEGF-stimulated); type: cell-based
Description: This assay determines the ability of a test compound to inhibit the growth factor-stimulated proliferation of human umbilical vein endothelial cells (“HUVEC”). HUVEC cells (passage 3–4, Clonetics, Corp.) were thawed into EGM2 culture medium (Clonetics Corp) in T75 flasks. Fresh EGM2 medium was added to the flasks 24 hours later. Four or five days later, cells were exposed to another culture medium (F12K medium supplemented with 10% fetal bovine serum (FBS), 60 μg/mL endothelial cell growth supplement (ECGS), and 0.1 mg/mL heparin). Exponentially-growing HUVEC cells were used in experiments thereafter. Ten to twelve thousand HUVEC cells were plated in 96-well dishes in 100 μl of rich, culture medium (described above). The cells were allowed to attach for 24 hours in this medium. The medium was then removed by aspiration and 105 μl of starvation media (F12K+1% FBS) was added to each well. After 24 hours, 15 μl of test agent dissolved in 1% DMSO in starvation medium or this vehicle alone was added into each treatment well; the final DMSO concentration was 0.1%. One hour later, 30 μl of VEGF (30 ng/mL) in starvation media was added to all wells except those containing untreated controls; the final VEGF concentration was 6 ng/mL. Cellular proliferation was quantified 72 hours later by MTT dye reduction, at which time cells were exposed for 4 hours MTT (Promega Corp.). Dye reduction was stopped by addition of a stop solution (Promega Corp.) and absorbance at 595λ was determined on a 96-well spectrophotometer plate reader.
IC50 values were calculated by curve-fitting the response of A^595 to various concentrations of the test agent; typically, seven concentrations separated by 0.5 log were employed, with triplicate wells at each concentration. For screening compound library plates, one or two concentrations (one well per concentration) were employed, and the % inhibition was calculated by the following formula: % inhibition=(control−test)[…](control−starvation) where
control=A^595 when VEGF is present without test agent
test=A^595 when VEGF is present with test agent
starvation=A^595 when VEGF and test agent are both absent.

PDGFRβ = target: T3, PDGFRβ (Homo sapiens, UniProt P09619); test: PAE-PDGFRβ Phosphorylation in PAE-PDGFRB Cells Assay; type: cell-based; conditions: PAE cells overexpressing human PDGFRβ; read-out: PAE PDGFR autophos IC50
T3 construct: expressed in transfected cells; host or cells: porcine aorta endothelial (PAE) cells
T3 sequence (P09619 33-1106): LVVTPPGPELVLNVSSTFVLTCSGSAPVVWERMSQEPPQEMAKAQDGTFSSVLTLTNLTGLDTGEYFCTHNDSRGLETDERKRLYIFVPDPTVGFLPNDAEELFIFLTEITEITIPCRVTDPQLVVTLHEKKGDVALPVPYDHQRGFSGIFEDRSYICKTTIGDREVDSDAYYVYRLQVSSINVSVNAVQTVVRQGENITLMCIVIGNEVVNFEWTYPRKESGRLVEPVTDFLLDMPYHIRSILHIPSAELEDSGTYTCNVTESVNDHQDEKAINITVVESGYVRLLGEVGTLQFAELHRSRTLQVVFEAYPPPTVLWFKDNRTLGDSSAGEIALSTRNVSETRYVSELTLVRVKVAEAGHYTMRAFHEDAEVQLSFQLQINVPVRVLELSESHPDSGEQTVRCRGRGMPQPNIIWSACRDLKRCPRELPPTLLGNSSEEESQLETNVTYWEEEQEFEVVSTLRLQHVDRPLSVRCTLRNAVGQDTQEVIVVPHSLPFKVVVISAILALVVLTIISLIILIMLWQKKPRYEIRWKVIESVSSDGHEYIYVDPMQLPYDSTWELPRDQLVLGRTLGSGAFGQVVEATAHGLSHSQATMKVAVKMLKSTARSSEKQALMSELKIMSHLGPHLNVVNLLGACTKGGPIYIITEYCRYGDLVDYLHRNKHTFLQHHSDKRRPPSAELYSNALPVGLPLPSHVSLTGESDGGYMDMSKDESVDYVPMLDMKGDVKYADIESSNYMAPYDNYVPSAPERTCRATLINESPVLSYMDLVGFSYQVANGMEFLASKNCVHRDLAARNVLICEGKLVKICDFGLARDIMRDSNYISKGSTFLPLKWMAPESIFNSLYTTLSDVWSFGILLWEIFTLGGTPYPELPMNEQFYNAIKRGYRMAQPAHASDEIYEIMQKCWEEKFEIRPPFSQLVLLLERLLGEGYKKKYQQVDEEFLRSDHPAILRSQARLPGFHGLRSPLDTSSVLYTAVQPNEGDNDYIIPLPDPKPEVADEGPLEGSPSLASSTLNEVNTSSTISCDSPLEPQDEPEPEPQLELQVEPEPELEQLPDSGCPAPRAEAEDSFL
Description: This assay determines the ability of a test compound to inhibit the autophosphorylation of PDGFRβ in porcine aorta endothelial (PAE)-PDGFRβ cells. PAE cells that overexpress human PDGFRβ were used in this assay. The cells were cultured in Ham's F12 media supplemented with 10% fetal bovine serum (FBS) and 400 ug/ml G418. Twenty thousands cells were seeded in each well of a 96-well plate in 50 μL of growth media and allowed to attach for 6 hours at 37° C. Cells were then exposed to the starvation media (Ham's F12 media supplemented with 0.1% FBS) for 16 hours. After the starvation period was over, 10 μL of test agent in 5% DMSO in starvation media were added to the test wells and 10 μL of the vehicle (5% DMSO in starvation media) were added into the control wells. The final DMSO concentration in each well was 0.5%. Plates were incubated at 37° C. for 1 hour and the cells were then stimulated with 1 μg/mL PDGF-BB (R & D System) in the presence of 2 mM Na3VO4 for 8 minutes. The cells were washed once with 1 mm Na3VO4 in HBSS and lysed by adding 50 μL per well of lysis buffer. One hundred μL of dilution buffer were then added to each well and the diluted cell lysate was transferred to a 96-well goat ant-rabbit coated plate (Pierce), which was pre-coated with Rabbit anti Human PDGFRβ antibody (Santa Cruz). The plates were incubated at room temperature for 2 hours and washed seven times with 1% Tween 20 in PBS. HRP-PY20 (Santa Cruz) was diluted and added to the plate for a 30-minute incubation. Plates were then washed again and TMB peroxidase substrate (Kirkegaard & Perry) was added for a 10-minute incubation. One hundred μL of 0.09 N H2SO4 was added into each well of the 96-well plate to stop the reaction. Phosphorylation status was assessed by spectrophotometer reading at 450 nm. IC50 values were calculated by curve fitting using a four-parameter analysis.

T1 sequence (P35968 with tags, fused parts or gaps DEL940-989/E990V limits assumed): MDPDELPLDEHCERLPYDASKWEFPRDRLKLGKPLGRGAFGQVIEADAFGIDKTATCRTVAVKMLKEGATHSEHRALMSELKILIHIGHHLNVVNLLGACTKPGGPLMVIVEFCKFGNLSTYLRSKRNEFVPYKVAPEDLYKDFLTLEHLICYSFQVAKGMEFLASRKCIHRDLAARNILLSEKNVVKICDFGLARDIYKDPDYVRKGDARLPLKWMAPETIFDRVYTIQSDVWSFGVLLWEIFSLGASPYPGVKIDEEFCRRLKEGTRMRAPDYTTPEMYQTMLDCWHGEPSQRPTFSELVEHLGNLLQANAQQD

inhibition at 0.05 µM [1] [%] | inhibition at 1 µM (FGF-R1) [%] | IC50 (PDGFRβ) [nM] | SMILES | IC50 [2] [nM]
28 | 24 | – | Cc1ccnc(/C=C/c2n[nH]c3cc(Nc4ccccc4C(=O)NCc4nc5ccccc5n4C)ccc23)c1 [Example 45, N-(1-Methyl-1H-benzoimidazol-2-ylmethyl)-2-{3-[(E)2-(4-methyl-pyridin-2-yl)-vinyl]-1H-indazol-6-ylamino}-benzamide] | –
85 | 63 | 2.4 | C#CCNC(=O)c1ccccc1Nc1ccc2c(/C=N/n3cccc3)n[nH]c2c1 [Example 63, N-Prop-2-ynyl-2-[3-(pyrrol-1-yliminomethyl)-1H-indazol-6-ylamino]-benzamide] | 0.1
11 | 36 | – | Cc1ccnc(/C=C/c2n[nH]c3cc(Nc4ccccc4C(=O)NCc4nccn4C)ccc23)c1 [Example 49, N-(1-Methyl-1H-imidazol-2-ylmethyl)-2-{3-[2-(4-methyl-pyridin-2-yl)-vinyl]-1H-indazol-6-ylamino}-benzamide] | –
82 | 52 | – | Cc1ccnc(/C=C/c2n[nH]c3cc(Nc4ccccc4C(=O)NCC#CCO)ccc23)c1 [Example 51, 2-{3-[(E)-2-(4-Methyl-pyridin-2-yl)-vinyl]-1H-indazol6-ylamino}-N-(4-hydroxy-but-2-ynyl)-benzamide] | –
97 | 67 | 3.7 | O=C(NCC#CC1CC1)c1ccccc1Nc1ccc2c(/C=N/n3cccc3)n[nH]c2c1 [Example 55, N-(3-Cyclopropyl-prop-2-ynyl)-2-[3-(pyrrol-1-yliminomethyl)-1H-indazol-6-ylamino]-benzamide] | 0.2
96 | 76 | 4.7 | Cc1ccnc(/C=C/c2n[nH]c3cc(Nc4ccccc4C(=O)NCc4cccc(C)n4)ccc23)c1 [Example 39, N-(6-Methyl-pyridin-2-ylmethyl)-2-{3-[2-(4-methyl-pyridin-2-yl)-vinyl]-1H-indazol-6-ylamino}-benzamide] | –
91 | 52 | 1.3 | O=C(NCC#CCO)c1ccccc1Nc1ccc2c(/C=N/n3cccc3)n[nH]c2c1 [Example 57, N-(4-Hydroxy-but-2-ynyl)-2-[3-(pyrrol-1-yliminomethyl)-1H-indazol-6-ylamino]-benzamide] | < 1.8

The next lines start with the compound.

SMILES | inhibition at 0.05 µM [1] [%] | inhibition at 1 µM (FGF-R1) [%] | IC50 (PDGFRβ) [nM] | IC50 [2] [nM]
Cc1cc(C)nc(/C=C/c2n[nH]c3cc(Nc4ncccc4C(=O)NCC#CC4CC4)ccc23)c1 [Example 25, N-(3-Cyclopropyl-prop-2-ynyl)-2-{3-[(E)-2-(4,6-dimethyl-pyridin-2-yl)-vinyl]-1H-indazol-6-ylamino}-nicotinamide] | 64 | 13 | – | 3
C#CCNC(=O)c1ccccc1Nc1ccc2c(/C=C/c3cc(C)cc(C)n3)n[nH]c2c1 [Example 13, N-(prop-2-ynyl)-2-{3-[(E)-2-(2,4-dimethyl-pyridin-2-yl)-vinyl]-1H-indazol-6-ylamino}-benzamide] | 80 | 63 | 6 | –
CC(=O)OCC#CCNC(=O)c1ccccc1Nc1ccc2c(/C=C/c3cc(C)cc(C)n3)n[nH]c2c1 [Example 20, Acetic acid 4-(2-{3-[(E)-2-(4,6-dimethyl-pyridin-2-yl)-vinyl]-1H-indazol-6-ylamino}-benzoylamino)-but-2-ynyl ester] | 91 | 35 | – | 0.084
C#CCNC(=O)c1ccccc1Nc1ccc2c(C(=O)NC)n[nH]c2c1 [Example 1(k), 6-(2-Prop-2-ynylcarbamoyl-phenylamino)-1H-indazole-3-carboxylic acid methylamide] | 27 | 12 | – | > 10
C=C(C)CNC(=O)c1ccccc1Nc1ccc2c(/C=C/c3cc(C)ccn3)n[nH]c2c1 [Example 34, N-(2-Methyl-allyl)-2-{[(E)-2-(4-methyl-pyridin-2-yl)-vinyl]-1H-indazol-6-ylamino}-benzamide] | 72 | – | 4.5 | –

Reference: patent US7053107B2, “Indazole compounds and pharmaceutical compositions for inhibiting protein kinases, and methods for their use” (Agouron Pharmaceuticals, Inc., priority 2002, dated 2006)
